Assay results: PubChem BioAssay (NCI)
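At the GI50, growth is halved. TGI marks complete inhibition of growth.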

Tests used:
Test in all cases: DTP human tumour cell line panel, 384-well format
[1] = tested on: SK-OV-3 ovarian
[2] = tested on: SNB-75 CNS
[3] = tested on: SF-539 CNS
[4] = tested on: SF-295 CNS
[5] = tested on: SK-MEL-2 melanoma
[6] = tested on: OVCAR-4 ovarian
[7] = tested on: T-47D breast
[8] = tested on: U251 glioblastoma
[9] = tested on: RPMI-8226 leukemia
[10] = tested on: HL-60(TB) leukemia
[11] = tested on: MOLT-4 leukemia
[12] = tested on: HT29 colon
[13] = tested on: PC-3 prostate
[14] = tested on: ACHN renal
[15] = tested on: HOP-92 NSCLC
[16] = tested on: MDA-MB-435 melanoma
[17] = tested on: MDA-MB-468 breast
[18] = tested on: NCI-H522 lung
[19] = tested on: SR leukemia
[20] = tested on: HCT-116 colon
[21] = tested on: EKVX NSCLC
[22] = tested on: OVCAR-3 ovarian
[23] = tested on: MCF7 breast
[24] = tested on: MDA-MB-231 breast
[25] = tested on: CCRF-CEM leukemia
[26] = tested on: HS 578T breast
[27] = tested on: HOP-62 NSCLC
[28] = tested on: UO-31 renal
[29] = tested on: RXF 393 renal
[30] = tested on: NCI-H322M lung
[31] = tested on: HCT-15 colon
[32] = tested on: UACC-257 melanoma
[33] = tested on: UACC-62 melanoma
[34] = tested on: DU-145 prostate
[35] = tested on: SK-MEL-5 melanoma
[36] = tested on: NCI-H23 lung
[37] = tested on: SK-MEL-28 melanoma
[38] = tested on: TK-10 renal
[39] = tested on: BT-549 breast
[40] = tested on: KM12 colon
[41] = tested on: SF-268 CNS
[42] = tested on: A549 NSCLC
[43] = tested on: CAKI-1 renal
[44] = tested on: SW-620 colon
[45] = tested on: SNB-19 CNS
[46] = tested on: COLO 205 colon
[47] = tested on: MALME-3M melanoma
[48] = tested on: IGROV1 ovarian
[49] = tested on: 786-0 renal
[50] = tested on: K-562 leukemia
[51] = tested on: M14 melanoma
[52] = tested on: LOX IMVI melanoma
[53] = tested on: NCI-H460 NSCLC
[54] = tested on: NCI-H226 lung
[55] = tested on: A498 renal
[56] = tested on: NCI/ADR-RES ovarian
[57] = tested on: HCC-2998 colon
[58] = tested on: OVCAR-5 ovarian
[59] = tested on: SN12C renal

SMILES: COc1cc(-c2ncn(/C=C\C(=O)OC(C)C)n2)cc(C(F)(F)F)c1
- GI50 [1]: 2340 nM
- TGI [1]: 14300 nM
- GI50 [2]: 91.9 nM
- TGI [2]: 311 nM
- GI50 [3]: 20.5 nM
- TGI [3]: 71.2 nM
- GI50 [4]: 214 nM
- TGI [4]: 2300 nM
- GI50 [5]: 44.3 nM
- TGI [5]: 69.5 nM
- GI50 [6]: 244 nM
- TGI [6]: 2040 nM
- GI50 [7]: 229 nM
- TGI [7]: 3730 nM
- GI50 [8]: 39.2 nM
- TGI [8]: 275 nM
- GI50 [9]: 13.6 nM
- TGI [9]: 32.5 nM
- GI50 [10]: 23.7 nM
- TGI [10]: 118 nM
- GI50 [11]: 12.6 nM
- TGI [11]: 25.9 nM
- GI50 [12]: 74.3 nM
- TGI [12]: 1120 nM
- GI50 [13]: 37.4 nM
- TGI [13]: 232 nM
- GI50 [14]: 57.5 nM
- TGI [14]: 1500 nM
- GI50 [15]: 69.5 nM
- TGI [15]: 1550 nM
- GI50 [16]: 43.3 nM
- TGI [16]: 210 nM
- GI50 [17]: 150 nM
- TGI [17]: 336 nM
- TGI [18]: 92.6 nM
- GI50 [19]: 11 nM
- TGI [19]: 23.7 nM
- GI50 [20]: 85 nM
- TGI [20]: 311 nM
- GI50 [21]: 429 nM
- TGI [21]: 6090 nM
- GI50 [22]: 26.4 nM
- TGI [22]: 151 nM
- GI50 [23]: 65.9 nM
- TGI [23]: 982 nM
- GI50 [24]: 51.4 nM
- TGI [24]: 663 nM
- GI50 [25]: 40.9 nM
- TGI [25]: 182 nM
- GI50 [26]: 68.1 nM
- TGI [26]: 461 nM
- GI50 [27]: 291 nM
- TGI [27]: 1530 nM
- GI50 [28]: 166 nM
- TGI [28]: 1580 nM
- GI50 [29]: 16.6 nM
- TGI [29]: 68.7 nM
- GI50 [30]: 295 nM
- TGI [30]: 2530 nM
- GI50 [31]: 45.8 nM
- TGI [31]: 1040 nM
- GI50 [32]: 552 nM
- TGI [32]: 4600 nM
- GI50 [33]: 42.4 nM
- TGI [33]: 179 nM
- GI50 [34]: 162 nM
- TGI [34]: 866 nM
- GI50 [35]: 137 nM
- TGI [35]: 601 nM
- GI50 [36]: 56.4 nM
- TGI [36]: 1140 nM
- GI50 [37]: 222 nM
- TGI [37]: 1610 nM
- GI50 [38]: 37.9 nM
- TGI [38]: 1200 nM
- GI50 [39]: 19 nM
- TGI [39]: 46.5 nM
- GI50 [40]: 217 nM
- TGI [40]: 1150 nM
- GI50 [41]: 29.9 nM
- TGI [41]: 88.8 nM
- GI50 [42]: 87.4 nM
- TGI [42]: 1360 nM
- GI50 [43]: 34.7 nM
- TGI [43]: 3950 nM
- GI50 [44]: 56.1 nM
- TGI [44]: 1250 nM
- GI50 [45]: 444 nM
- TGI [45]: 3150 nM
- GI50 [46]: 48.2 nM
- TGI [46]: 1260 nM
- GI50 [47]: 171 nM
- TGI [47]: 609 nM
- GI50 [48]: 92.8 nM
- TGI [48]: 2090 nM
- GI50 [49]: 37.3 nM
- TGI [49]: 1200 nM
- GI50 [50]: 30.4 nM
- TGI [50]: 177 nM
- GI50 [51]: 123 nM
- TGI [51]: 382 nM
- GI50 [52]: 198 nM
- TGI [52]: 826 nM
- GI50 [53]: 29.6 nM
- TGI [53]: 163 nM
- GI50 [54]: 20.8 nM
- TGI [54]: 483 nM
- GI50 [55]: 114 nM
- TGI [55]: 1250 nM
- GI50 [56]: 54.9 nM
- TGI [56]: 1270 nM
- GI50 [57]: 89.2 nM
- TGI [57]: 838 nM
- GI50 [58]: 117 nM
- TGI [58]: 10000 nM
- GI50 [59]: 283 nM
- TGI [59]: 1770 nM
